# Key:
# [1] = system: TSU-Pr1, PC3, DU145 and MCF7 human cancer cell lines; test: viability (Trypan blue exclusion) and FACS sub-G1 of four human cancer cell lines; format: cell-based
# Procedure: Effect of dysidiolide on the viability of the human cancer cell lines (A) TSU-Pr1, (B) MCF7, (C) PC3, and (D) DU145. Cultures were untreated or treated with 2, 10 or 50 μM dysidiolide for 24 hr. All cultures received a final DMSO concentration of 0.25%. Cells were harvested by trypsinization and viability was determined by Trypan blue exclusion.
# FACS analysis of (A) TSU-Pr1, (B) PC3, (C) DU145, and (D) MCF7, untreated or treated with 2, 10 or 50 μM dysidiolide for 24 hr. All cultures received a final DMSO concentration of 0.25%.
# Cells containing fragmented DNA content were detected as the M1 (subG1) region on DNA content plots.
# A 20 mM stock solution of dysidiolide was prepared in dimethylsulfoxide (DMSO) and a pilot experiment was carried out to measure the effects of the drug on the viability (Trypan blue exclusion) and flow cytometric parameters of four human cancer cell lines: the prostate lines TSU-Pr1, PC3 and DU145, and the breast line, MCF7. Cultures were treated with 0, 2, 10 and 50 μM dysidiolide for 24 hr. Dysidiolide was cytotoxic to the four lines as evidenced by the loss of Trypan blue exclusion capability and by the appearance of sub-G1 fraction on flow cytometric (FACS) analysis (FIGS. 3 and 4A-D). […] (At 50 μM dysidiolide, the level of cell death was too high in TSU-Pr1 cells to fit a valid histogram (FIG. 5A)). […]
# [2] = system: MCF7 human breast cancer cells; test: BrdU pulse-chase S phase progression; format: cell-based
# Procedure: Effect of 10 μM dysidiolide on cell cycle progression of S-phase MCF7 cells (BrdU-positive). MCF7 cultures were pulse-labeled with 10 μM BrdU for 30 min. Cultures were washed extensively with phosphate-buffered saline (PBS) solution and fresh media was added, supplemented or not with 10 μM dysidiolide. The final DMSO concentration of control and drug cultures was 0.05%. Cells were harvested at different times after the BrdU pulse and cells were stained for DNA content with propidium iodide, and for BrdU, with a monoclonal anti-BrdU antibody coupled to fluorescein. The progression of this group of cells through the cell cycle was followed by dual wavelength flow cytometry.
# Effect of 50 μM dysidiolide on cell cycle progression of S-phase MCF7 cells. MCF7 cells were pulse-labeled for 30 min with BrdU, and chased for 24 hr in the presence or absence of 50 μM dysidiolide. BrdU versus DNA content plots are shown for cell cultures harvested just after the pulse (time 0, “0”), and after the chase with (“24+”) or without drug (“24−”)
# To further analyze the cell cycle effects induced by dysidiolide, the effects of the drug on S phase progression were tested. For this purpose, a subset of cells was pulse-labeled with the thymidine analog, 5-bromodeoxyuridine (BrdU) for 30 min, and chased in the presence or absence of dysidiolide. The progression of this group of cells through the cell cycle was followed by flow cytometry, by analyzing the intensity of BrdU labeling and DNA content at two different wavelengths: red for propidium iodide stain (DNA content) and green for the detection of anti-BrdU antibodies coupled to fluorescein (Becton-Dickinson Immunocytometric Systems, San Jose, Calif.). The first experiment was conducted on MCF7 human breast cancer cells chased for varying time periods after a 30 min BrdU pulse, with or without 10 μM dysidiolide. After a 24 hr chase in the presence of the drug, fewer cells had reached G1 (FIG. 6). However, the effect was modest in intensity (approximately 45% less cells reached G1 in treated samples, compared with untreated controls) […]
# [3] = system: Cdk2; test: Cdk2 kinase activity on immunoprecipitates from treated MCF7 cells; format: cell-based, human
# Procedure: Effect of dysidiolide on the activity of Cdk2 and on the steady-state levels of Cdc25A and Cdc25C. MCF7 cells were treated for 2 or 4 hr with 0, 2 or 10 μM dysidiolide. A) The kinase activity of Cdk2 was assayed on immunoprecipitates using histone H1 as exogenous substrate. B) The steady-state levels of Cdc25 A and C were analyzed in total cell lysates with specific antibodies (Santa Cruz Biotechnology's sc097 and sc327 antibodies were used for detection of Cdc25 A and C, respectively).
# Effect of a 24 hr treatment with 50 μM dysidiolide on the kinase activity of Cdk4, Cdk2 and Cdc2. Cdk were immunoprecipitated from MCF7 cell lysates obtained from cultures treated or not with dysidiolide for 24 hr. Histone H1 was used as substrate for Cdk2 and Cdc2, whereas GST-Rb was the substrate for Cdk4.
# To further characterize the effects of dysidiolide on cell cycle control, experiments were conducted at the molecular level. As Cdc25s (A, B and C) are positive regulators of cyclin-dependent kinases (Cdk) (reviewed in Draetta and Eckstein, BBA 1332: M53-M63, 1997) inhibition of Cdc25 is expected to result in inhibition of Cdk activity. MCF7 cells were treated with 2 or 10 μM dysidiolide or with DMSO (controls) for 2 or 4 hr. Cell extracts were used to measure the steady-state levels of Cdc25 A and C, and Cdk activity. […]
structure (smiles),measurement,setting,value
C=C(C)CCC[C@@]1(C)CCC[C@H]2C1=CC[C@H](C)[C@]2(C)C[C@H](O)C1=CC(=O)O[C@@H]1O (racemic) [dysidiolide],"cytotoxicity (loss of Trypan blue exclusion, sub-G1 fraction)","[1]; 2, 10 and 50 μM, 24 hr",cytotoxic
same,growth arrest,"[1]; 2-50 μM, within 24 hours, four human cancer cell lines",growth arrest
same,less cells reached G1 compared with untreated controls,"[2]; 10 μM, 24 hr chase after 30 min BrdU pulse",approximately 45%
same,cell cycle progression of BrdU-positive cells onto the next G1 phase,"[2]; 50 μM, 24 hr chase",prevented cell cycle progression
same,"cells with intermediate DNA content (S phase), forced fit","[2]; 50 μM, 24 hr chase, BrdU-positive cells",approximately 90%
same,Cdk2 protein kinase activity,"[3]; 50 μM, 24 hr",inhibition
same,Cdk2 activity,"[3]; 2 or 10 μM, 2 or 4 hr",no significant changes

# Source: patent publication US6482851B1, “Synthesis of dysidiolide and uses thereof” (Sloan-Kettering Institute for Cancer Research, priority 1998, dated 2002)
